Source: patent publication US8088828B2, “Treating benign prostate hyperplasia with SARMS” (priority 2002, dated 2012)

What was measured:
[1] = target: T1, human 5α-reductase type 1 (Homo sapiens, UniProt P18405); format: cell-based
T1 construct: expressed in transfected cells; host or cells: COS1 cells; expression vectors obtained from Dr. David W. Russell
T1 sequence (P18405 1-259): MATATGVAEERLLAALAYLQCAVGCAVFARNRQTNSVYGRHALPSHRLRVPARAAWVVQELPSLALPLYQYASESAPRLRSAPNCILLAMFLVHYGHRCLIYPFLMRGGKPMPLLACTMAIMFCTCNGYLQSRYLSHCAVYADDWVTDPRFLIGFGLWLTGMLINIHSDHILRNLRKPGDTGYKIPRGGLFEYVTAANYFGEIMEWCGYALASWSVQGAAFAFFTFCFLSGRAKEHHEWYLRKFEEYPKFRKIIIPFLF
Description: (§1) Methods: COS1 (American Type Culture Collection, Manassas, Va.) cells were plated in twelve-well plates at a density of 60,000 cells/well and transiently transfected with expression vectors for human 5•-reductase (obtained from Dr. David W. Russell, Southwestern Medical Center, Dallas, Tex.). LipofectAMINE PLUS™ Reagent (Invitrogen, Carlsbad, Calif.) was used for transfection. pCMV•SPORT-•gal plasmid (Invitrogen, Carlsbad, Calif.) was co-transfected to monitor transfection efficiency. Forty-eight hours after transfection, testosterone (4 μM) and/or Compound VI (2 or 200 μM) were added to the medium and incubated at 37° C. Aliquots of the culture medium were removed after 2 hours and the reaction stopped by addition of ice-cold acetonitrile (1:1, vol:vol). Testosterone and Compound VI concentrations in the incubate were determined by HPLC using a reversed-phase column (μBondaPak C18, 3.9×300 mm, Waters Corporation, Milford, Mass.) and a mobile phase of 38% acetonitrile in deionized water at a flow rate of 1.5 ml/min. Analytes were detected by UV absorbance at 254 nm. Calibration curves were prepared using the peak areas to calculate the concentration of testosterone or Compound VI in the incubate at the completion of the reaction. Cells were lysed after the reaction and the cellular supernatant used to determine •-galactosidase activity and ensure equal transfection efficiency between wells.

[2] = target: T2, human 5α-reductase type 2 (Homo sapiens, UniProt P31213); format: cell-based
T2 construct: expressed in transfected cells; host or cells: COS1 cells; expression vectors obtained from Dr. David W. Russell
T2 sequence (P31213 1-254): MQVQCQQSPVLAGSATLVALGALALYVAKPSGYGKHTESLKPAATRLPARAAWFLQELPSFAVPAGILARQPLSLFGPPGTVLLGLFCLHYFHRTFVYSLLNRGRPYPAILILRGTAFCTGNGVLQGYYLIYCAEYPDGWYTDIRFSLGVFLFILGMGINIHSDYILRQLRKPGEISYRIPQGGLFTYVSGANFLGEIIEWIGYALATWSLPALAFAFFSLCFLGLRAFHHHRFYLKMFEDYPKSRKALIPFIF
Description: as §1

[3] = system: male Sprague-Dawley rats (intact, hemi-orchidectomized, castrated); experiment: Plasma testosterone, FSH, LH and osteocalcin in rats of varying hormonal status; format: in vivo, rat; settings: for Plasma FSH levels / Plasma LH levels / Plasma osteocalcin levels / Plasma testosterone levels: 0.5 mg/day osmotic pump, 14 days
Description: (§2) Methods: Compound VI was synthesized and characterized in the laboratory of Dr. Duane Miller at the University of Tennessee, Memphis, Tenn. Male Sprague-Dawley rats were purchased from Harlan Biosciences (Indianapolis, Ind.). The animals were maintained on a 12-h cycle of light and dark with food and water available ad libitum. All animal studies were reviewed and approved by the Animal Care and Use Committee of The Ohio State University, and conformed to the Principles of Laboratory Animal Care. Immature male Sprague-Dawley rats weighing […] were randomly distributed into 9 groups of 5 animals. One day before the initiation of drug treatment, groups 4 through 6 and groups 7 through 9 received unilateral or bilateral orchidectomy, respectively, via a midline scrotal incision. […] All drugs given to animals were freshly prepared as solutions in polyethylene glycol 300 (PEG 300). Groups 4 and 7 received treatment with vehicle alone (i.e., PEG 300). Animals in groups 3, 6, and 9 received testosterone propionate (TP, 0.5 mg/day) via implantation of subdermal osmotic pumps (Model 2002, Durect Corporation, Palo Alto, Calif.). Animals in groups 2, 5, and 8 received Compound VI (0.5 mg/day) via implantation of subdermal osmotic pumps. After 14 days of drug treatment, rats were weighed, anesthetized, and sacrificed. Blood samples were collected by venipuncture of the abdominal aorta. Plasma samples were analyzed for testosterone, FSH, LH and osteocalcin. Testosterone concentrations were measured by AniLytics Inc. (Gaithersburg, Md.). FSH and LH levels were measured by the National Hormone and Peptide Program (Dr. A F Parlow, UCLA, CA). Plasma osteocalcin levels were determined using a commercially available rat osteocalcin EIA kit from Biomedical Technologies Inc. (Stoughton, Mass.). The ventral prostates, seminal vesicles, and levator ani muscle were removed and weighed. Osmotic pumps were also removed from animals to check for correct pump operation. The weights of all organs were normalized to body weight, and analyzed for any statistically significant differences between groups using single-factor ANOVA with the alpha value set a priori at p<0.05. The weights of prostates and seminal vesicles were used as indices for evaluation of androgenic activity, and the levator ani muscle weight was used to evaluate the anabolic activity. Statistical analyses of parameters from complete blood count or serum chemical profiling, wherever applicable, were performed by single-factor ANOVA with the alpha value set a priori at p<0.05.

[4] = system: male Sprague-Dawley rats (intact, hemi-orchidectomized, castrated); experiment: Prostate, seminal vesicle and levator ani muscle weights in rats of varying hormonal status; format: in vivo, rat; settings: 0.5 mg/day, 14 days
Description: as §2

[5] = system: intact male Sprague-Dawley rats; experiment: Organ weights in intact male rats after 3, 6 or 9 days of daily subcutaneous injections; format: in vivo, rat
Description: Methods: Male Sprague-Dawley rats were purchased from Harlan Biosciences (Indianapolis, Ind.). The animals were maintained on a 12-h cycle of light and dark with food and water available ad libitum. Male Sprague-Dawley rats weighing 189 to 226 g were randomly distributed into groups of 5 animals. The intact male rats were treated with hydroxy-flutamide (0.5, 1, 5, 10 or 25 mg/kg), finasteride (5 mg/kg), Compound VII (0.5, 1, 5, 10, 25 mg/kg) or vehicle for 3, 6, or 9 days. The drugs were dissolved in DMSO:PEG300 (20:80, v:v) and administered via daily subcutaneous injections, and the dosages were adjusted based on animal's body weight, which was measured on a daily basis. A group of castrated rats (n=5) was also included as control for each time point. […] The organ weights were normalized with the body weights. Percentage changes were determined by comparison to intact animals. Statistical analyses of all the parameters were performed by single-factor ANOVA with the alpha value set a priori at p<0.05.

[6] = testosterone 4 μM alone, 2 hours
[7] = Compound VI 2 μM, 2-hour incubation
[8] = testosterone 4 μM, Compound VI 2 μM or 200 μM, 2 hours
[9] = all surgical groups, 0.5 mg/day
[10] = 3 days, all doses (0.5, 1, 5, 10, mg/kg) s.c.

## C[C@]12CC[C@H]3[C@@H](CCC4=CC(=O)CC[C@@]43C)[C@@H]1CC[C@@H]2O [Testosterone, testosterone, reference compound]
[1]; [6]
  decrease in testosterone concentration (conversion to DHT): 34%
[2]; [6]
  decrease in testosterone concentration (conversion to DHT): 35%

## CC(=O)Nc1ccc(OC[C@](C)(O)C(=O)Nc2ccc([N+](=O)[O-])c(C(F)(F)F)c2)cc1 [Compound VI]
[1]
  type of inhibition of 5α-reductase type 1: competitive inhibitor
[1]; [7]
  metabolism of Compound VI by 5α-reductase type 1: not metabolized
[1]; [8]
  decrease in testosterone concentration in the presence of Compound VI: less than 10%
[2]
  type of inhibition of 5α-reductase type 2: competitive inhibitor
[2]; [7]
  metabolism of Compound VI by 5α-reductase type 2: not metabolized
[2]; [8]
  decrease in testosterone concentration in the presence of Compound VI: less than 10%
[3]; [9]
  effect on plasma FSH and LH levels: no effect
[3]; castrated rats
  Plasma FSH levels: 69.6 ± 11.7 ‡ ng/ml
  Plasma LH levels: 8.644 ± 2.799 ‡ ng/ml
  Plasma osteocalcin levels: 94.215 ± 12.568 ng/mL
  Plasma testosterone levels: 0.066 ± 0.148 ‡ ng/ml
[3]; hemi-orchidectomized and castrated animals, 0.5 mg/day
  effect on plasma osteocalcin levels: significant increase
[3]; hemi-orchidectomized rats
  Plasma FSH levels: 15.2 ± 2.2 ng/mL
  Plasma LH levels: 0.124 ± 0.115 ng/mL
  Plasma osteocalcin levels: 89.804 ± 15.517 ng/mL
  Plasma testosterone levels: 1.404 ± 0.810 ng/mL
[3]; intact rats
  Plasma FSH levels: 14.4 ± 1.7 ng/mL
  Plasma LH levels: 0.026 ± 0.037 ng/mL
  Plasma osteocalcin levels: 55.584 ± 9.715 ng/mL
  Plasma testosterone levels: 1.830 ± 0.510 ng/mL
[3]; intact, hemi-orchidectomized or castrated male rats, 0.5 mg/day
  effect on plasma testosterone levels: did not affect
[4]; castrated rats
  Levator ani muscle weight normalized to body weight: 100.65 ± 10.86 % of intact control
  Prostate weight normalized to body weight: 32.55 ± 11.65 % of intact control
  Seminal vesicle weight normalized to body weight: 16.47 ± 5.21 % of intact control
[4]; hemi-orchidectomized rats
  Levator ani muscle weight normalized to body weight: 108.10 ± 8.92 % of intact control
  Prostate weight normalized to body weight: 74.69 ± 8.44 % of intact control
  Seminal vesicle weight normalized to body weight: 78.55 ± 13.58 % of intact control
  size of the levator ani muscle: 108 % of that observed in untreated hemi-orchidectomized animals
  size of the prostate: 75 % of that observed in untreated hemi-orchidectomized animals
  size of the seminal vesicles: 79 % of that observed in untreated hemi-orchidectomized animals
[4]; intact rats
  Levator ani muscle weight normalized to body weight: 109.15 ± 14.68 % of intact control
  Prostate weight normalized to body weight: 79 % of intact control
  Seminal vesicle weight normalized to body weight: 90.54 ± 12.10 % of intact control
  changes in the size of the seminal vesicles or levator ani muscle: no statistically significant changes
[4]; intact rats, listed as COMPOUND VI
  Prostate weight normalized to body weight: 79.41 ± 9.32 % of intact control
[4]; rats
  adverse pharmacologic effects: No adverse pharmacologic effects were observed

## CC(C)(O)C(=O)Nc1ccc([N+](=O)[O-])c(C(F)(F)F)c1 [hydroxy-flutamide]
[5]; [10]
  levator ani muscle weight (compared to intact animals): ~85%
  prostate weight (normalized to body weight, compared to intact animals): approximately 60%
  seminal vesicle weight (compared to intact animals): ~50%
[5]; 6 days, 25 mg/kg s.c.
  levator ani muscle weight (compared to intact animals): 65%
  prostate weight (compared to intact animals): 54%
  seminal vesicle weight (compared to intact animals): 41%
[5]; 6 days, lower dose groups (0.5, 1, 5, 10 mg/kg) s.c.
  organ weights (prostate, seminal vesicle, levator ani muscle): returned to the levels observed in intact animals
[5]; 9 days, 25 mg/kg s.c.
  effects on all the organ weights compared to previous time points: maintained its effects on all the organ weights at a similar level
[5]; 9 days, lower doses (0.5, 1, 5, 10 mg/kg) s.c., dose-dependent
  changes in prostate, seminal vesicle and levator ani muscle weights: moderate decreases

## CC(C)(C)NC(=O)[C@H]1CC[C@H]2[C@@H]3CC[C@H]4NC(=O)C=C[C@]4(C)[C@H]3CC[C@]12C [finasteride]
[5]; 3 days, 5 mg/kg s.c.
  effect on levator ani muscle weight: no effect
  prostate weight (compared to intact animals): 59%
  seminal vesicle weight (compared to intact animals): 38%
[5]; 6 days, 5 mg/kg s.c.
  changes in levator ani muscle weight: no significant changes
  prostate weight (compared to intact animals): 67%
  seminal vesicle weight (compared to intact animals): 47%
[5]; 9 days, 5 mg/kg s.c.
  change in levator ani muscle weight: not significantly changed
  prostate weight (compared to intact animals): 55%
  seminal vesicle weight (compared to intact animals): 29%

## CCC(=O)O[C@H]1CC[C@H]2[C@@H]3CCC4=CC(=O)CC[C@]4(C)[C@H]3CC[C@]12C [TP, testosterone propionate, reference compound]
[3]; [9]
  effect on plasma osteocalcin levels: no effect
[3]; castrated male rats, 0.5 mg/day
  effect on plasma FSH and LH levels: significant decrease
[3]; castrated rats
  Plasma FSH levels: 58.0 ± 6.9 † ‡ ng/ml
  Plasma LH levels: 6.702 ± 1.513 ‡ ng/ml
  Plasma osteocalcin levels: 65.976 ± 11.213 ng/mL
  Plasma testosterone levels: 0.258 ± 0.103 † ‡ ng/ml
[3]; hemi-orchidectomized rats
  Plasma FSH levels: 17.2 ± 3.3 ng/mL
  Plasma LH levels: 0.124 ± 0.092 ng/mL
  Plasma osteocalcin levels: 77.236 ± 24.418 ng/mL
  Plasma testosterone levels: 2.366 ± 1.232 ng/mL
[3]; intact rats
  Plasma FSH levels: 11.4 ± 1.7 ng/mL
  Plasma LH levels: 0.168 ± 0.173 ng/mL
  Plasma osteocalcin levels: 74.952 ± 15.399 ng/mL
  Plasma testosterone levels: 1.482 ± 0.416 ng/mL
[4]; castrated rats
  Levator ani muscle weight normalized to body weight: 87.27 ± 10.25 % of intact control
  Prostate weight normalized to body weight: 76.78 ± 10.43 % of intact control
  Seminal vesicle weight normalized to body weight: 63.48 ± 17.05 % of intact control
[4]; hemi-orchidectomized rats
  Levator ani muscle weight normalized to body weight: 98.63 ± 10.47 % of intact control
  Prostate weight normalized to body weight: 98.57 ± 7.98 % of intact control
  Seminal vesicle weight normalized to body weight: 114.19 ± 23.81 % of intact control
[4]; intact rats
  Levator ani muscle weight normalized to body weight: 95.61 ± 9.34 % of intact control
  Prostate weight normalized to body weight: 97.45 ± 10.82 % of intact control
  Seminal vesicle weight normalized to body weight: 103.95 ± 13.23 % of intact control
